Test results from patent publication US6949544B2, “Inhibitors of c-Jun N-terminal kinases (JNK) and other protein kinases” (Vertex Pharmaceuticals Incorporated, priority 2001, dated 2005).
pKi: −log10 of the molar value.

Columns and labels:
Type in all cases: biochemical
activated JNK3 = molecular target: T1, activated JNK3 (Homo sapiens, UniProt P53779); assay: JNK inhibition assay (spectrophotometric coupled-enzyme assay); conditions: 10 nM activated JNK3, 10 μM ATP; read-out: Activity in the JNK3 Inhibition Assay (Ki rating A-C)
T1 construct: One such construct encodes amino acid residues Ser40-Glu402 of JNK3α1 and is preceded by Met and Gly residues; Met-Gly (initiator methionine and added glycine) (N); made in house; host or cells: E. coli BL21 (DE3)
Procedure, shortened: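 Activated (doubly phosphorylated, MKK7(DD)-activated) human JNK3, 10 nM, preincubated 10 min at 30 °C with inhibitor in 0.1 M HEPES pH 7.5, 10 mM MgCl2, 200 μM EGF receptor peptide, PK/LDH-coupled. Started with 10 μM ATP; A340 decrease followed at 30 °C. Ki from competitive inhibition model fit.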

[1] = molecular target: T2, full length recombinant human Src kinase (Homo sapiens, UniProt P12931); assay: Src inhibition assay (33P incorporation into poly Glu-Tyr)
T2 construct: full length recombinant human Src kinase; purchased Upstate Biotechnology 14-117; host or cells: baculo viral cells (baculovirus expression)
Experimental: The compounds were assayed as inhibitors of full length recombinant human Src kinase (from Upstate Biotechnology, cat. no. 14-117) expressed and purified from baculo viral cells. Src kinase activity was monitored by following the incorporation of ^33P from ATP into the tyrosine of a random poly Glu-Tyr polymer substrate of composition, Glu:Tyr=4:1 (Sigma, cat. no. P-0275). The following were the final concentrations of the assay components: 0.05 M HEPES, pH 7.6, 10 mM MgCl2, 2 mM DTT, 0.25 mg/ml BSA, 10 μM ATP (1-2 μCi ^33P-ATP per reaction), 5 mg/ml poly Glu-Tyr, and 1-2 units of recombinant human Src kinase. In a typical assay, all the reaction components with the exception of ATP were pre-mixed and aliquoted into assay plate wells. […] The assay plate was incubated at 30° C. for 10 min before initiating the reaction with ^33P-ATP. After 20 min of reaction, the reactions were quenched with 150 μl of 10% trichloroacetic acid (TCA) containing 20 mM Na3PO4. The quenched samples were then transferred to a 96-well filter plate (Whatman, UNI-Filter GF/F Glass Fiber Filter, cat no. 7700-3310) installed on a filter plate vacuum manifold. Filter plates were washed four times with 10% TCA containing 20 mM Na3PO4 and then 4 times with methanol. 200 μl of scintillation fluid was then added to each well. The plates were sealed and the amount of radioactivity associated with the filters was quantified on a TopCount scintillation counter.

CDK-2/Cyclin A = CDK-2/Cyclin A (Homo sapiens, UniProt P24941); assay: CDK2 inhibition assay (standard coupled enzyme assay); conditions: 25 nM CDK-2/Cyclin A; read-out: CDK2 Inhibitory Activity (Ki rating A-C)
Procedure, shortened: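 CDK-2/Cyclin A (25 nM final) started the reaction after 10-min, 30° C preincubation of compound (30 μM final) with peptide (100 μM), ATP and coupling enzymes in HEPES pH 7.5.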

T2 sequence (P12931 whole entry): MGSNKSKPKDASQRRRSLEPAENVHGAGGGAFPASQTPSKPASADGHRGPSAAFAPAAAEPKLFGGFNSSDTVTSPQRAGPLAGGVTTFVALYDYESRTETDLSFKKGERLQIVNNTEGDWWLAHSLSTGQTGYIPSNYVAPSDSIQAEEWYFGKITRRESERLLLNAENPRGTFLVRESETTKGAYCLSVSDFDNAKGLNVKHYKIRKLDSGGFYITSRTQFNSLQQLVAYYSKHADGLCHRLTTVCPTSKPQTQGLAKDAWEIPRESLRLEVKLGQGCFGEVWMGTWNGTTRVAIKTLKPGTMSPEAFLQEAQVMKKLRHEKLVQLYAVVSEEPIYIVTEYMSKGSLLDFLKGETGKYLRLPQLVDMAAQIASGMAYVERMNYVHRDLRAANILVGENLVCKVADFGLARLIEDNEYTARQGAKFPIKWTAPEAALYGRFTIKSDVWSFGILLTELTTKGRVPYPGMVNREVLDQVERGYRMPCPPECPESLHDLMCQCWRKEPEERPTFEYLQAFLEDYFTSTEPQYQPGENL
T1 sequence (P53779 40-402): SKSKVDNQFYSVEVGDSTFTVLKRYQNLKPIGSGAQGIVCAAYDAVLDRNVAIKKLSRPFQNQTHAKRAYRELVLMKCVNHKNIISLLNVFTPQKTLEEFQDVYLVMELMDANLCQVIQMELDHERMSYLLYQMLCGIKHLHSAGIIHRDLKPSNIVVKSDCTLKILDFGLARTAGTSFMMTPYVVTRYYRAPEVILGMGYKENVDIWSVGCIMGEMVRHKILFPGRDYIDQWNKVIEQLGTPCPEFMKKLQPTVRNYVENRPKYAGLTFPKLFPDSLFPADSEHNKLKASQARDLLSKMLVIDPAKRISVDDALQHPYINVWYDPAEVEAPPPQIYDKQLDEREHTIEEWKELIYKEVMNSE

Row | pKi (activated JNK3) | inhibition at 2 µM ([1]; at a 2 μM inhibitor concentration, read-out: Activity in the SRC Inhibition Assay (percent inhibition rating D-F)) [%] | pKi (CDK-2/Cyclin A) | pKi ([1]; 10 μM ATP, read-out: Activity in the SRC Inhibition Assay (Ki rating A-C)) | Structure (SMILES)
1 | > 7.00 | 24 to 66 | < 5.30 | – | COc1cc(-c2ccnc(Nc3cccc(N)c3)n2)cc(OC)c1OC [Compound I-57]
2 | > 7.00 | – | < 5.30 | < 6.00 | COc1cc(-c2ccnc(Nc3ccc(N)cc3)n2)cc(OC)c1OC [Compound I-34]
